Consider two molecules from patent US11285167B2, “Synergistic nutritional neuroprotective compositions for ameliorating neural dysfunction” (CELAGENEX RESEARCH (INDIA) PVT. LTD., priority 2019, dated 2022).

The subject of one test is Interleukin - 6. The test is described as follows: Interleukin-6 level in global ischemia reperfusion induced brain injury (cerebral infarction) model. The following applies: global ischemia (30 min)/72 h reperfusion, oral daily for 10 days, mean ± SEM, n = 6. Type of test: in vivo, Wistar rats.
The test system of test [1] is Valproic acid-induced autism disorder in albino Wistar rats. The test is described as follows: Overall autism-like behavior in VPA model of autism disorder. Type of test: in vivo. The procedure:
The present study was to evaluate the effect of test substances on Valproic acid induced Autism spectrum disorder in wistar rats. The animals (50 animals) were divided into five groups each group consisting of 10 animals (5 animals per sex). Animals in Group-1 were treated with vehicle (0.5% CMC), Group-2 was treated with Valproic acid (VPA) 400 mg/kg via subcutaneous route, Group-3, Group-4 and Group-5 were treated with test substance Agmatine Sulphate (25.83 mg/kg), Nicotinamide Riboside chloride (6.46 mg/kg) and Agmatine Sulphate+Nicotinamide Riboside chloride (25.83 mg/kg+6.46 mg/kg) respectively, according to the body weight of animals. At the end of the experimental period, blood was collected from each group for biochemical analyses. On postnatal day 40 (PND 40), all the animals were exposed to the Morris water maze test and Open field test for specific time periods to determine the autism-like behaviors of the test substances. […] The experiment was performed in 14-day old male and female off springs. The weight of the rat pups on the first day of the experiment was 20-40 grams. Sodium Valproate at dose of 400 mg/kg was freshly prepared and administered via subcutaneous route to the rat pups on postnatal day 14 (PND 14). […] In addition, behaviors of experimental animals were determined via Morris water maze and open field test. […]

Test [2] shares this test system. The test is described as follows: Morris water maze test in Valproic acid-induced autism disorder. Type of test: in vivo. Details: Escape latency / Retention time: unit not given here. The following applies: for Escape latency / Retention time: PND 40, VPA 400 mg/kg, oral daily PND 14 to PND 40, mean ± SEM; for Learning and memory activities, Morris water maze (in words): PND 40, compared to Disease control or to Group-3 and Group-4. The procedure:
The present study was to evaluate the effect of test substances on Valproic acid induced Autism spectrum disorder in wistar rats. The animals (50 animals) were divided into five groups each group consisting of 10 animals (5 animals per sex). Animals in Group-1 were treated with vehicle (0.5% CMC), Group-2 was treated with Valproic acid (VPA) 400 mg/kg via subcutaneous route, Group-3, Group-4 and Group-5 were treated with test substance Agmatine Sulphate (25.83 mg/kg), Nicotinamide Riboside chloride (6.46 mg/kg) and Agmatine Sulphate+Nicotinamide Riboside chloride (25.83 mg/kg+6.46 mg/kg) respectively, according to the body weight of animals. At the end of the experimental period, blood was collected from each group for biochemical analyses. On postnatal day 40 (PND 40), all the animals were exposed to the Morris water maze test and Open field test for specific time periods to determine the autism-like behaviors of the test substances. […] The experiment was performed in 14-day old male and female off springs. The weight of the rat pups on the first day of the experiment was 20-40 grams. Sodium Valproate at dose of 400 mg/kg was freshly prepared and administered via subcutaneous route to the rat pups on postnatal day 14 (PND 14). All the animals were divided into five groups and each group contained the same amount of male and female offspring (5 males and 5 females, per group). Animals in Group-1 served as Normal control and were treated with 0.5% CMC, Group-2 served as Disease control and were treated with VPA (400 mg/kg) via intraperitoneally (i.p.), whereas Group-3 was treated with Test-1 Agmatine Sulphate (25.83 mg/kg), Group-4 was treated with Test-2 Nicotinamide Riboside chloride (6.46 mg/kg) and Group-5 was treated with Test-1+Test-2 Agmatine Sulphate+Nicotinamide Riboside chloride (25.83 mg/kg+6.46 mg/kg). The assigned test substances were administered once daily from PND 14 to PND 40. In addition, behaviors of experimental animals were determined via Morris water maze and open field test. […] The dose volume administered to each rat was 10 ml/kg/day. Similarly, 0.5% CMC for Normal control and Disease control groups was administered orally at the same dose volume for a minimum of 26 consecutive days. The dose volume was calculated for individual animals on the first day of the treatment and was re-calculated according to the recent body weights recorded during the study. Daily individual dose volumes were recorded in the study records. The animals were exposed to a pool consisting of 4 quadrants (Northeast, Southeast, Southwest, and Northwest) which was filled with tap water (25° C., 40 cm deep) and covered with nontoxic milk. The removable platform was immersed below the water surface of one quadrant. Each animal had to memorize the location of the immersed platform by using specific visual cues placed around the outside of the tank. The time spent by each rat in finding and climbing on the immersed platform was recorded as the escape latency. Twenty-four hours later, the animal was re-exposed to the same condition, except that the immersed platform had been removed. The mean time that each rat spent in the target quadrant in order to search for the missing platform was noted as the retention time and was used as the index of retrieval memory. Both the escape latency and the retention time in a 5-minute exposure time were used as indices of learning and memory. A blind observer always stood at the same position, and care was taken not to disturb the relative location of water maze with respect to other objects in the laboratory. The determination of the spatial memory capacity via this test was done on PND 40.

Turning to `N=C(N)NCCCCN.O=S(=O)(O)O` [Agmatine sulphate], in the test with Interleukin - 6, the “Interleukin - 6 Levels” value turned out to be 91.39 ± 0.92 pg/mL. Besides, the “Autism-like behavior (in words)” value in test [1] is on record as “improved autism-like behavior”. In test [2] (Female), this molecule came in with an Escape latency of 14.20 ± 0.37 and a Retention time of 24.80 ± 0.58. In addition, in test [2] (Male), the Escape latency stood at 14.00 ± 0.71 and the Retention time came to 24.20 ± 0.73. In test [2], the “Learning and memory activities, Morris water maze (in words)” value is “significantly increased learning and memory activities”.
For `NC(=O)c1ccc[n+]([C@@H]2O[C@H](CO)[C@@H](O)[C@H]2O)c1.[Cl-]` [Nicotinamide Riboside chloride, nicotinamide riboside chloride], the “Interleukin - 6 Levels” value in the test on Interleukin - 6 was 109.56 ± 0.27 pg/mL. Besides, the “Autism-like behavior (in words)” value in test [1] is “improved autism-like behavior”. Besides, the results for the Escape latency in test [2] (Female) and in test [2] (Male) were 15.20 ± 0.37 and 15.40 ± 0.51, respectively. In addition, the Retention time amounted to 26.40 ± 0.68 in test [2] (Female) and 26.20 ± 0.49 in test [2] (Male). For the same molecule, the “Learning and memory activities, Morris water maze (in words)” value in test [2] is “significantly increased learning and memory activities”.
